Assay results from patent US11713338B2, “Cyclic peptides multimers targeting α-4-β-7 integrin” (priority 2016, dated 2023).
Read-outs that look alike come from different tables or passages of the source.

Key:
[1] = target: T1, VCAM-1 binding to α4β7-negative Th memory cells (Homo sapiens, UniProt P05556+P13612); assay: VCAM-1 competition / receptor occupancy assay in human whole blood, α4β7-negative Th memory cells; format: cell-based
T1 construct: endogenous in cells
Description: Analyte Competition Assay in CD4+ Integrin α4+β7-Lo Memory T Cells
Receptor occupancy in primary cells was determined by measuring the amount of biotinylated human recombinant MAdCAM-1-FC or human recombinant VCAM-1-Fc bound to selected cell populations using flow cytometry. Human recombinant MAdCAM-1-FC or human recombinant VCAM-1-FC (R&D systems) were biotinylated using commercially available reagents and protocol (Pierce).
Whole blood was collected from human donors in sodium heparin tubes. A volume of 100 microL of blood was incubated with compound and 4 mM MnCL2 for 1 hour at room temperature. Cells were washed twice with 1 mL of 1X DPBS calcium magnesium free (CMF) (ThermoFisher Scientific) and resuspended in 100 microL of DPBS CMF.
Biotinylated human recombinant MAdCAM-1-Fc or VCAM-1-Fc were added at saturating concentration and incubated at room temperature for 1 hour. A volume of 2 mL of 1X BD FACS Lyse (BD Biosciences) was then added and the mixture was incubated for 8-12 minutes at room temperature in the dark to lyse red blood cells. Cells were washed with 1 mL stain buffer-FBS (BD Biosciences) and resuspended in 100 μl stain Buffer-FBS (BD Biosciences) containing 4 mM MnCl2. Biotinylated-rhMAdCAM-1 was applied at a saturating concentration of 1200 ng/mL to compete with test article binding and incubated at room temperature for 1 hour. Cells were then washed with 1 mL stain buffer-FBS and resuspended in […] stain buffer-FBS. The cells were incubated in the dark for 30 minutes at room temperature with 1 ul Streptavidin APC (Biolegend 0.2 mg/ml) and a panel of antibodies for the detection of memory T helper a4b7-positive cells subset. And amount of 5.0 ul each of the following antibodies were used; CD45 FITC (BioLegend 200 ug/ml), CD29 APC Cy7 (BioLegend 100 ug/ml), Integrin beta7 PE, (BioLegend concentration 50 μg/mL), CD49d V421 (BioLegend 50 μg/mL), CD3 V510 (BioLegend 30 μg/mL), CD4 PECy7 (BioLegend 100 μg/mL), CD45RO PerCP, BioLegend 200 μg/mL). The cells were then washed with stain-buffer-FBS and resuspended in 150 microL stain buffer-FBS for acquisition on the flow cytometer (BD FACSCanto™ flow cytometer and BDFACSDiva™ software). FACS data was acquire by electronic gating on the basis of forward versus side scatter, The cytometer was set to collect 20,000 events in each tube. Cell population were determined using the following markers, CD45+, CD3+, CD4+, CD45RO+, CD49d+, integrin b7, biotinylated ligands.
Compound receptor occupancy was defined as the decrease in the number of integrin β7+ or integrin β7-lo cells binding biotinylated rhMAdCAM-1 or rhVCAM-1, respectively.
(§1) Receptor occupancy was calculated with the following equation: 100−((% ligand-positive cells with compound/% ligand-positive cells DMSO)*100) In Vivo T Lymphocyte Trafficking Analysis in Mouse Model of Colitis

[2] = system: α4β7+ T helper memory lymphocytes in mesenteric lymph nodes; assay: In vivo T lymphocyte trafficking analysis in DSS mouse model of colitis; details: DSS-treated mice
Description: as §1
Animal care: The animal care facility employed is accredited by the Canadian Council on Animal Care (CCAC). This study was approved by a certified Animal Care Committee and complied with CACC standards and regulations governing the use of animals for research. The animals were housed under standardized environmental conditions. A standard certified commercial rodent diet was provided ad libitum. Tap water was provided ad libitum at all times.
Dextran sulfate sodium (DSS) was administered to C57Bl/6 female mice for five days through addition to their drinking water at 3%. Body weight and disease activity index (“DAI”) were measured on Day 5 in order to distribute DSS-treated animals in uniform groups prior to dosing. DAI was scored based on the severity three specific symptoms associated with colitis: 1—blood in stool (negative hemoccult, positive hemoccult, blood traces in stool visible, rectal bleeding); 2—stool consistency (normal, soft but still formed, very soft, diarrhea); 3—body weight loss. […]
Statistical analysis was performed using GraphPad Prism. Differences among groups were evaluated by two-way ANOVA, with a 95% confidence interval.

[3] = human whole blood, inhibition of VCAM binding to α4β7-negative Th memory cells, FACS, read-out: VCAM FACS α4+β7− Th mem

T1 sequence (P13612 34-1032): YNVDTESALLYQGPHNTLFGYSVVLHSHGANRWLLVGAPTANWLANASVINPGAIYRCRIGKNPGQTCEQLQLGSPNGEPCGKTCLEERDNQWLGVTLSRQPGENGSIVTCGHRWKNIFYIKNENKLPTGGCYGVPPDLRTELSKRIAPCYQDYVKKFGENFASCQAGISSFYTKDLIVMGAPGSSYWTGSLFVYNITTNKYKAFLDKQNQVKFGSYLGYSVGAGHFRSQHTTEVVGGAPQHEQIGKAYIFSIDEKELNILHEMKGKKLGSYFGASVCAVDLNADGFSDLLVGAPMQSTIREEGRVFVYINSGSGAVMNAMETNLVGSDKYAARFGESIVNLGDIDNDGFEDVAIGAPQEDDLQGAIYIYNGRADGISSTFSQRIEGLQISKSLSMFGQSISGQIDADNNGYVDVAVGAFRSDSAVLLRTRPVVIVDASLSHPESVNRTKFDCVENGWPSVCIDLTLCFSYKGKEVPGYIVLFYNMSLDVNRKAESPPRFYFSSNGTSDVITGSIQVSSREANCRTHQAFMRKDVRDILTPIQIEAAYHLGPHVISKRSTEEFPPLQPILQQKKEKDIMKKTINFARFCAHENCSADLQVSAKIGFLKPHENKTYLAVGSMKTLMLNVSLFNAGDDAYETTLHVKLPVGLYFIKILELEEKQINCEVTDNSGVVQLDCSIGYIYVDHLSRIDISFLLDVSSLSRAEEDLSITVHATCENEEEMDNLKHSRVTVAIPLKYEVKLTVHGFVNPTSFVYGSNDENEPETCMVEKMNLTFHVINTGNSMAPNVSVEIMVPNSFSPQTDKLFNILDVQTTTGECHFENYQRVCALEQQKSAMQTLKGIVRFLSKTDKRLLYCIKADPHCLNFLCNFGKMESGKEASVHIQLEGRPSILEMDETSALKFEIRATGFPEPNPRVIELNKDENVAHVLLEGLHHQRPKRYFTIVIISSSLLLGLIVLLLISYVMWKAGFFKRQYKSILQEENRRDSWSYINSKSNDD
T1 sequence (P05556 21-798): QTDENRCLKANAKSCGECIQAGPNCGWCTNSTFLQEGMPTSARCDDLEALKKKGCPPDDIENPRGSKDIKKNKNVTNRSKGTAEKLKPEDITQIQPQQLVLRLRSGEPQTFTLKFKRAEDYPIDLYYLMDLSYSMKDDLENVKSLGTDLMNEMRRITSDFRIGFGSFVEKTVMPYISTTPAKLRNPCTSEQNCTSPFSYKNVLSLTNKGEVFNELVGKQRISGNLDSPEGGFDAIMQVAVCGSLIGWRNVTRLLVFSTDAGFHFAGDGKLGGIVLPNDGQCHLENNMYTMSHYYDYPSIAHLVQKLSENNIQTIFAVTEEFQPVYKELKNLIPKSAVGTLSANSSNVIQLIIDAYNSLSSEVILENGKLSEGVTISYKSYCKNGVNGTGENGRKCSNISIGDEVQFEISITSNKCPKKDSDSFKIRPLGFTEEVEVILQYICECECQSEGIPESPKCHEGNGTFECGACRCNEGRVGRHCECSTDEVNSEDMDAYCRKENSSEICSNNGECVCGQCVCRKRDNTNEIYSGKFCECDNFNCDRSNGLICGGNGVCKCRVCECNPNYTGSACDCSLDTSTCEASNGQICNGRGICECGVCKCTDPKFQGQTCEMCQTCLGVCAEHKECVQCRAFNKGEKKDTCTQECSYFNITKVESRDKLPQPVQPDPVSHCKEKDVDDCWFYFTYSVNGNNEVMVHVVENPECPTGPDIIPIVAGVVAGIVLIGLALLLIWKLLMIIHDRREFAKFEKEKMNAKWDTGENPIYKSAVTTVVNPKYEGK

For CC(C)C[C@@H]1NC(=O)C[C@H](CCCCN)N(C)C(=O)[C@H](CCCCNC(=O)CCCCCCCCC(=O)NCCCC[C@@H]2NC(=O)[C@@H]3CCCN3[C@H](C(=O)NC(C)(C)C)[C@H](C)NC(=O)[C@H]([C@@H](C)O)NC(=O)[C@H](CC(=O)O)NC(=O)[C@H](CC(C)C)NC(=O)C[C@H](CCCCN)N(C)C2=O)NC(=O)[C@@H]2CCCN2[C@H](C(=O)NC(C)(C)C)[C@H](C)NC(=O)[C@H]([C@@H](C)O)NC(=O)[C@H](CC(=O)O)NC1=O [Compound 530], which IC50 [1, 3] is on record?
Its IC50 is > 4 µM.

And the IC50 ([1]; whole blood from a single donor, FIG. 11, up to 4000 nM, read-out: IC50, VCAM binding)?
The IC50 was ≥ 0.6 µM.

CC(C)C[C@@H]1NC(=O)c2ccc(-c3ccc(N4CCN(C(=O)CCOCCOCCOCCOCCOCCOCCOCCOCCOCCOCCC(=O)N5CCN(c6ccc(-c7ccc8cc7CNC(=O)[C@@H]7CCCN7[C@H](C(=O)NC(C)(C)C)[C@H](C)NC(=O)[C@H]([C@@H](C)O)NC(=O)[C@H](CC(=O)O)NC(=O)[C@H](CC(C)C)NC8=O)cc6)CC5)CC4)cc3)c(c2)CNC(=O)[C@@H]2CCCN2[C@H](C(=O)NC(C)(C)C)[C@H](C)NC(=O)[C@H]([C@@H](C)O)NC(=O)[C@H](CC(=O)O)NC1=O [Compound 511] was tested. Which IC50 [1, 3] did it give?
The IC50 was 20 µM.

For CC(C)C[C@@H]1NC(=O)c2ccc(-c3ccc(N4CCN(C(=O)c5ccccc5-c5ccccc5C(=O)N5CCN(c6ccc(-c7ccc8cc7CNC(=O)[C@@H]7CCCN7[C@H](C(=O)NC(C)(C)C)[C@H](C)NC(=O)[C@H]([C@@H](C)O)NC(=O)[C@H](CC(=O)O)NC(=O)[C@H](CC(C)C)NC8=O)cc6)CC5)CC4)cc3)c(c2)CNC(=O)[C@@H]2CCCN2[C@H](C(=O)NC(C)(C)C)[C@H](C)NC(=O)[C@H]([C@@H](C)O)NC(=O)[C@H](CC(=O)O)NC1=O [Compound 517], which IC50 [1, 3] is on record?
The IC50 was 0.607 µM.

What about the “reduction of the number of α4β7+ positive lymphocytes in mesenteric lymph nodes” value ([2]; 80 mg/kg orally daily days 6 to 9) of the same molecule?
The value was 60%.

And the “reduction in α4β7+ T helper memory lymphocytes in mesenteric lymph nodes, dose dependence” value ([2]; FIG. 9)?
Its value is “dose-dependent reduction”.

With CC(C)C[C@@H]1NC(=O)c2ccc(-c3ccc(N4CCN(CCC(=O)N5CCN(c6ccc(-c7ccc8cc7CNC(=O)[C@@H]7CCCN7[C@H](C(=O)NC(C)(C)C)[C@H](C)NC(=O)[C@H]([C@@H](C)O)NC(=O)[C@H](CC(=O)O)NC(=O)[C@H](CC(C)C)NC8=O)cc6)CC5)CC4)cc3)c(c2)CNC(=O)[C@@H]2CCCN2[C@H](C(=O)NC(C)(C)C)[C@H](C)NC(=O)[C@H]([C@@H](C)O)NC(=O)[C@H](CC(=O)O)NC1=O [Compound 482] as the molecule, how does the IC50 [1, 3] read?
Its IC50 is ≥ 4 µM.
